From patent US12673052B2, “Combinations for the treatment of cancer” (Exelixis, Inc., priority 2020, dated 2026)
pEC50, pIC50: −log10 of the molar value.

Assays:
CYP1A2 = assay: Cytochrome P450 induction (mRNA levels) in fresh primary human hepatocytes; format: in vitro ADME
advanced solid tumors = assay: Phase 1 first-in-human Study Compound 1-001 (NCT03845166): safety (DLT, adverse events) and preliminary clinical activity; format: in vivo
From the text: The maximum tolerated dose (MTD) and/or recommended dose (RD) of Compound 1 single-agent therapy and ICI combination therapy will be determined in a Dose-Escalation Stage. The preliminary efficacy of Compound 1 as single agent and as ICI combination therapy will be determined in a Cohort-Expansion Stage with tumor-specific expansion cohorts. As of 14 Dec. 2020, dose escalation of Compound 1 as single agent and in combination therapy with atezolizumab was ongoing: 19 subjects were enrolled in single agent cohorts across six dose levels (PIB: 10, 20 mg; Tablet: 20, 40, 80, 140 mg); three subjects were enrolled in combination therapy with atezolizumab at one dose level (Compound 1 40 mg po qd plus atezolizumab 1200 mg IV q3w). As of 14 Dec. […] The majority of reported adverse events (AEs) were of low-grade severity (Grade 1-2) with five subjects having experienced treatment-related Grade 3 events.
In the Compound 1 single-agent dose-escalation cohorts, study drug will be administered qd for the first 28 days, which comprises the Dose-Limiting Toxicity (DLT) Evaluation Period. At the end of the 28-day DLT period, the Cohort Review Committee will review all available safety and PK data for cohorts containing at least 3 subjects and dose escalation to the next cohort may proceed if 0 out of 3 subjects or […] subjects experience(s) a DLT (as defined below). Dose escalation to the next cohort will not exceed a doubling of the Compound 1 dose; however, the Cohort Review Committee may decide to institute a less-than-doubling escalation between cohorts based on evaluation of safety and PK results from the current and previous cohorts.
Dose-limiting toxicity is defined as any of the following treatment-emergent AEs occurring during the DLT Evaluation Period for Compound 1 as single-agent therapy: • Any treatment-emergent AE that in the opinion of the Cohort Review Committee is of potential clinical significance such that further dose escalation of Compound 1 would expose subjects to unacceptable risk • Non-hematologic toxicity: treatment-emergent […] AEs • The following hematologic toxicities that are treatment-emergent: • Grade 3 thrombocytopenia with clinically significant bleeding • Grade 4 thrombocytopenia • Grade 4 neutropenia of 4 days duration • Grade 3 neutropenia of any duration with fever (single temperature of ≥38.3° C. [101.0° F.] or sustained temperature of ≥38.0° C. [100.4° F.] for ≥1 hour) or documented infection • Grade 4 anemia • Inability to take 75% of the total planned Compound 1 dose for the DLT Evaluation Period because of a treatment-emergent AE leading to a dose reduction and/or interruption • Any AE experienced during the DLT Evaluation Period that results in permanent discontinuation of Compound 1 For subjects receiving Compound 1 as combination therapy with atezolizumab or avelumab, the above in addition to the following are defined as DLTs: • Any related Grade 3 AE which is unexpected in severity and/or duration compared with the known safety profiles of Compound 1 and atezolizumab or avelumab when used as single agents, and that cannot be managed by dose modification (reduction or interruption) and adequate supportive care, and requires permanent discontinuation of Compound 1 and/or atezolizumab or avelumab. • Any AE experienced during the DLT Evaluation Period that results in permanent discontinuation of Compound 1 and/or atezolizumab or avelumab Note: AEs are presumed attributable to study drug. […]

CYP2B6 = assay: Cytochrome P450 induction (mRNA levels) in fresh primary human hepatocytes; format: in vitro ADME
hERG channel = hERG channel (Homo sapiens, UniProt Q12809); assay: In vitro hERG channel inhibition; format: cell-based
Sequence of hERG channel (Q12809 whole entry): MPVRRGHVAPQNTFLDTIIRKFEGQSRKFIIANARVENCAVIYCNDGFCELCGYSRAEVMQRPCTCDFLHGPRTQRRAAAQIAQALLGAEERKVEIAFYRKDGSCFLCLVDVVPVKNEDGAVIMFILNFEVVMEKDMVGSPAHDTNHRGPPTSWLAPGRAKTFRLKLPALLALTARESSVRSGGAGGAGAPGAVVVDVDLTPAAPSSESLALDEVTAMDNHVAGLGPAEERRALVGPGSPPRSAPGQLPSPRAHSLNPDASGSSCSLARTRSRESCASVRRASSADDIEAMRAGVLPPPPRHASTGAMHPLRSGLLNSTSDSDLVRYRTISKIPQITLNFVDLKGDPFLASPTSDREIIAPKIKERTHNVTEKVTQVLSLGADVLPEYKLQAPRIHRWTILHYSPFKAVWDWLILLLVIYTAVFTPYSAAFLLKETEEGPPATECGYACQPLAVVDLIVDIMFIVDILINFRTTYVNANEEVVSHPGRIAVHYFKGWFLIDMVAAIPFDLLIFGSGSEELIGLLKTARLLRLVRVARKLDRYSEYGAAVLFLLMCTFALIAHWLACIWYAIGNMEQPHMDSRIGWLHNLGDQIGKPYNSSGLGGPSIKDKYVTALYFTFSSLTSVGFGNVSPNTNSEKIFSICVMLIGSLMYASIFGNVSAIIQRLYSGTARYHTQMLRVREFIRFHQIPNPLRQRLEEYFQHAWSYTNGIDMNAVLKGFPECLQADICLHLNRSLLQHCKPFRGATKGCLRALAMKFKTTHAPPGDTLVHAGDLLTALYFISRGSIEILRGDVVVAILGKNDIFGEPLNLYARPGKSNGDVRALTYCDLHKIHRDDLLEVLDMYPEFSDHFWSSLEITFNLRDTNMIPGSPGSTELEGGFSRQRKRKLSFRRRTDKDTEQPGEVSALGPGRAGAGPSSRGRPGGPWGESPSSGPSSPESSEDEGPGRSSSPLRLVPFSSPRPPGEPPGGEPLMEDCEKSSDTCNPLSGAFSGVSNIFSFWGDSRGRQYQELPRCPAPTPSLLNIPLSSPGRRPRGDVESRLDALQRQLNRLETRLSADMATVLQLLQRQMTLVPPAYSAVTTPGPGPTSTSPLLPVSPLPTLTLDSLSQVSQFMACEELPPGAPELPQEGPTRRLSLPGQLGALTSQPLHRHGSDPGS

[1] = human, fresh primary human hepatocytes, mRNA induction, read-out: half-maximal effective concentration (EC50)

Structure (SMILES): CNC(=O)c1cc2c(Oc3ccc(NC(=O)C4(C(=O)Nc5ccc(F)cc5)CC4)cc3)ccnc2cc1OC [Compound 1, 1-N′-(4-Fluorophenvl)-1-N-[4-[7-methoxy-6-(methylcarbamovl)quinolin-4-yl]oxyphenyl]cyclopropane-1,1-dicarboxamide]
- pEC50 (CYP1A2; [1]): 6.03
- maximal induction effect (Emax) (CYP1A2; mRNA, 0.1-100 μM): 5 fold
- subjects with treatment-related Grade 3 events (advanced solid tumors; as of 14 Dec. 2020): five subjects
- treatment-related Grade 4 or Grade 5 events (advanced solid tumors; as of 14 Dec. 2020): no treatment-related Grade 4 or Grade 5 events
- tolerability (advanced solid tumors; single agent and in combination with ICI therapy): well tolerated
- preliminary clinical activity (advanced solid tumors; single agent therapy and atezolizumab combination therapy cohorts): prolonged disease stabilization and tumor regressions
- DLTs observed among completed dose levels (advanced solid tumors; single agent, one subject at 140 mg po qd, Grade 3 uncontrolled hypertension): one DLT
- pEC50 (CYP2B6; [1]): 5.27
- maximal induction effect (Emax) (CYP2B6; mRNA, 0.1-100 μM): 17 fold
- pIC50 (hERG channel): ~5.40
